Legend:
Mino cells = test: Antiproliferative effect, MTS cell viability assay, Mino cells; format: cell-based; conditions: Homo sapiens, MINO, Mino mantle cell lymphoma cells; read-out: IC50 (anti-proliferation) Mino cells
In short: (§1)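 Mino and JeKo-1 mantle B-cell lymphoma lines were exposed to compound at 0, 0.001, 0.01, 0.1, 1 and 10 μM for 72 h. Viability was read by MTS reduction to formazan, measured as absorbance at 490 nm.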

JeKo-1 cells = test: Antiproliferative effect, MTS cell viability assay, JeKo-1 cells; format: cell-based; conditions: Homo sapiens; JeKo-1 mantle cell lymphoma cells; read-out: IC50 (anti-proliferation) JeKO-1 cells
In short: as §1

BTK [1] = biological target: T1, BTK (Homo sapiens, UniProt Q06187); test: BTK degradation, DC50 and Dmax of Table 1 (cell line not given); format: cell-based; set-up: endogenous in cells; conditions: for DC50: concentration giving 50% reduction of BTK expression level
BTK [2] = biological target: T1, BTK; test: Degradation of BTK protein in Namalwa cells (Western blot; DC50, Dmax); conditions: Namalwa B lymphocyte cells, Western blot; for degradation of BTK protein: various concentrations, 24 hours
Description: Namalwa, JeKo-1, or Mino cells were plated in 24-well plates at a density of 10^5 cells/well. Media containing various drug concentrations were added on the day following plating (day 0) and allowed to incubate for 24 hours for Western blot. Media with the tested compound was changed every other day. […] Media were removed and dishes were washed with 1×DPBS. Lysates were made by adding 150 μL of complete lysis solution and scraping cells into a 1.5 mL microcentrifuge tube. Lysates were placed on a rotisserie at 4° C. for 30 min and then spun at 4° C. at 12000 rcf for 10 min. Supernatants were assayed for protein content, snap-frozen, and stored a −80° C. if not run immediately. Then 50 μg of protein was subjected to Western blot protocol. […] They were then imaged on a LICOR infrared scanner.

T1 sequence (Q06187 whole entry): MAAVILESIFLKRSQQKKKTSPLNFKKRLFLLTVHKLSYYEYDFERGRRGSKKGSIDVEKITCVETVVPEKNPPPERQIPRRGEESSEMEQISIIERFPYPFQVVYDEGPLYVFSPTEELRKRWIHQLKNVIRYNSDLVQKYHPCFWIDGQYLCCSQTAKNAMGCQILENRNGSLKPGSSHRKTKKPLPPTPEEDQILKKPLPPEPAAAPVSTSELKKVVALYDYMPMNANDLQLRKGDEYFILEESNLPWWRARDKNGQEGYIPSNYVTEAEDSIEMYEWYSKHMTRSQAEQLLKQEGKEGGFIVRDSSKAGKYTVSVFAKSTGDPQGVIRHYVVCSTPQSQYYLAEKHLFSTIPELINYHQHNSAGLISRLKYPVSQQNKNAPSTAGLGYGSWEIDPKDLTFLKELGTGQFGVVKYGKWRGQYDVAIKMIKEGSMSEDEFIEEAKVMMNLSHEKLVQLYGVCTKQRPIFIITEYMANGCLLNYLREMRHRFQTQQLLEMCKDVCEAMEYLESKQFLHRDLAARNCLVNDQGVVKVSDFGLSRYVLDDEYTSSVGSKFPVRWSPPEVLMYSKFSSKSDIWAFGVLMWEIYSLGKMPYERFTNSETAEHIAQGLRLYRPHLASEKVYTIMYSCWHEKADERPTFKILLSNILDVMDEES

Row | Structure (SMILES) | IC50 (Mino cells) [nM] | IC50 (JeKo-1 cells) [nM] | Dmax (BTK [1]) [%] | DC50 (BTK [1]) [nM] | degradation of BTK protein at 10^−6 M (BTK [2]) | degradation of BTK protein (BTK [2])
1 | Nc1ncnc2c1c(-c1ccc(Oc3ccccc3)cc1)nn2C1CCN(CC2CCN(C(=O)N3CCN(c4ccc5c(c4)C(=O)N(C4CCC(=O)NC4=O)C5=O)CC3)CC2)CC1 (stereo not shown) [Compound 35, 5-(4-(4-((4-(4-amino-3-(4-phenoxyphenyl)-1H-pyrazolo(3,4-d)pyrimidin-1-yl)piperidin-1-yl)methyl)piperidine-1-carbonyl)piperazin-1-yl)-2-(2,6-dioxopiperidin-3-yl)isoindoline-1,3-dione] | < 1000 | 1000 to 10000 | > 90 | < 10 | degradation | dose-dependent degradation
2 | Nc1ncnc2c1c(-c1ccc(Oc3ccccc3)cc1)nn2C1CCN(C(=O)N2CCC(C3CCN(c4ccc5c(c4)C(=O)N(C4CCC(=O)NC4=O)C5=O)CC3)CC2)CC1 (stereo not shown) [Compound 79, 5-(1′-(4-(4-amino-3-(4-phenoxyphenyl)-1H-pyrazolo(3,4-d)pyrimidin-1-yl)piperidine-1-carbonyl)-(4,4′-bipiperidin)-1-yl)-2-(2,6-dioxopiperidin-3-yl)isoindoline-1,3-dione] | > 10000 | > 10000 | > 75 | > 50 | degradation | –
3 | Nc1ncnc2c1c(-c1ccc(Oc3ccccc3)cc1)nn2C1CCN(C(=O)N2CCC(N3CCN(c4ccc5c(c4)C(=O)N(C4CCC(=O)NC4=O)C5=O)CC3)CC2)CC1 (stereo not shown) [Compound 81, 5-(4-(1-(4-(4-amino-3-(4-phenoxyphenyl)-1H-pyrazolo(3,4-d)pyrimidin-1-yl)piperidine-1-carbonyl)piperidin-4-yl)piperazin-1-yl)-2-(2,6-dioxopiperidin-3-yl)isoindoline-1,3-dione] | > 10000 | > 10000 | > 75 | > 50 | – | dose-dependent degradation
4 | Nc1ncnc2c1c(-c1ccc(Oc3ccccc3)cc1)nn2[C@@H]1CCCN(C(=O)N2CCC(CCN3CCN(c4ccc5c(c4)C(=O)N(C4CCC(=O)NC4=O)C5=O)CC3)CC2)C1 (stereo partly drawn) [Compound 63, 5-(4-(2-(1-((R)-3-(4-amino-3-(4-phenoxyphenyl)-1H-pyrazolo(3,4-d)pyrimidin-1-yl)piperidine-1-carbonyl)piperidin-4-yl)ethyl)piperazin-1-yl)-2-(2,6-dioxopiperidin-3-yl)isoindoline-1,3-dione] | 1000 to 10000 | 1000 to 10000 | > 90 | < 10 | degradation | dose-dependent degradation
5 | Nc1ncnc2c1c(-c1ccc(Oc3ccccc3)cc1)nn2[C@@H]1CCCN(C(=O)N2CCC(N3CCN(c4ccc5c(c4)C(=O)N(C4CCC(=O)NC4=O)C5=O)CC3)CC2)C1 (stereo partly drawn) [Compound 51, 5-(4-(1-((R)-3-(4-amino-3-(4-phenoxyphenyl)-1H-pyrazolo(3,4-d)pyrimidin-1-yl)piperidine-1-carbonyl)piperidin-4-yl)piperazin-1-yl)-2-(2,6-dioxopiperidin-3-yl)isoindoline-1,3-dione] | < 1000 | < 1000 | > 90 | < 10 | degradation | dose-dependent degradation
6 | Nc1ncnc2c1c(-c1ccc(Oc3ccccc3)cc1)nn2[C@@H]1CCCN(C(=O)N2CCN(c3ccc4c(c3)C(=O)N(C3CCC(=O)NC3=O)C4=O)CC2)C1 (stereo partly drawn) [Compound 45, 5-(4-((R)-3-(4-amino-3-(4-phenoxyphenyl)-1H-pyrazolo[3,4-d]pyrimidin-1-yl)piperidine-1-carbonyl)piperazin-1-yl)-2-(2,6-dioxopiperidin-3-yl)isoindoline-1,3-dione] | > 10000 | > 10000 | > 50 | > 50 | degradation | –
7 | Nc1ncnc2c1c(-c1ccc(Oc3ccccc3)cc1)nn2C1CCN(C(=O)N2CCC(CCN3CCN(c4ccc5c(c4)C(=O)N(C4CCC(=O)NC4=O)C5=O)CC3)CC2)CC1 (stereo not shown) [Compound 93, 5-(4-(2-(1-(4-(4-amino-3-(4-phenoxyphenyl)-1H-pyrazolo(3,4-d)pyrimidin-1-yl)piperidine-1-carbonyl)piperidin-4-yl)ethyl)piperazin-1-yl)-2-(2,6-dioxopiperidin-3-yl)isoindoline-1,3-dione] | 1000 to 10000 | 1000 to 10000 | > 90 | 10 to 50 | degradation | dose-dependent degradation
8 | Nc1ncnc2c1c(-c1ccc(Oc3ccccc3)cc1)nn2[C@@H]1CCCN(C2CCN(C(=O)N3CCN(c4ccc5c(c4)C(=O)N(C4CCC(=O)NC4=O)C5=O)CC3)CC2)C1 (stereo partly drawn) [Compound 159, 5-(4-((R)-3-(4-amino-3-(4-phenoxyphenyl)-1H-pyrazolo(3,4-d)pyrimidin-1-yl)-(1,4′-bipiperidine)-1′-carbonyl)piperazin-1-yl)-2-(2,6-dioxopiperidin-3-yl)isoindoline-1,3-dione] | 1000 to 10000 | > 10000 | > 50 | > 50 | degradation | –
9 | Nc1ncnc2c1c(-c1ccc(Oc3ccccc3)cc1)nn2C1CCN(CC2CCN(C(=O)N3CCC(N4CCN(c5ccc6c(c5)C(=O)N(C5CCC(=O)NC5=O)C6=O)CC4)CC3)CC2)CC1 (stereo not shown) [Compound 37, 5-(4-(1-(4-((4-(4-amino-3-(4-phenoxyphenyl)-1H-pyrazolo(3,4-d)pyrimidin-1-yl)piperidin-1-yl)methyl)piperidine-1-carbonyl)piperidin-4-yl)piperazin-1-yl)-2-(2,6-dioxopiperidin-3-yl)isoindoline-1,3-dione] | < 1000 | 1000 to 10000 | > 90 | 10 to 50 | degradation | dose-dependent degradation
10 | Nc1ncnc2c1c(-c1ccc(Oc3ccccc3)cc1)nn2[C@@H]1CCCN(C(=O)N2CCC(CN3CCN(c4ccc5c(c4)C(=O)N(C4CCC(=O)NC4=O)C5=O)CC3)CC2)C1 (stereo partly drawn) [Compound 55, 5-(4-((1-((R)-3-(4-amino-3-(4-phenoxyphenyl)-1H-pyrazolo(3,4-d)pyrimidin-1-yl)piperidine-1-carbonyl)piperidin-4-yl)methyl)piperazin-1-yl)-2-(2,6-dioxopiperidin-3-yl)isoindoline-1,3-dione] | < 1000 | < 1000 | > 90 | 10 to 50 | degradation | dose-dependent degradation
11 | Nc1ncnc2c1c(-c1ccc(Oc3ccccc3)cc1)nn2C1CCN(C(=O)N2CCC(C3CCN(c4ccc5c(c4)CN(C4CCC(=O)NC4=O)C5=O)CC3)CC2)CC1 (stereo not shown) [Compound 80, 3-(5-(1′-(4-(4-amino-3-(4-phenoxyphenyl)-1H-pyrazolo[3,4-d]pyrimidin-1-yl)piperidine-1-carbonyl)-[4,4′-bipiperidin]-1-yl)-1-oxoisoindolin-2-yl)piperidine-2,6-dione] | > 10000 | > 10000 | > 75 | > 50 | degradation | –
12 | Nc1ncnc2c1c(-c1ccc(Oc3ccccc3)cc1)nn2C1CCN(CC2CCN(C(=O)N3CCC(CN4CCN(c5ccc6c(c5)C(=O)N(C5CCC(=O)NC5=O)C6=O)CC4)CC3)CC2)CC1 (stereo not shown) [Compound 41, 5-(4-((1-(4-((4-(4-amino-3-(4-phenoxyphenyl)-1H-pyrazolo(3,4-d)pyrimidin-1-yl)piperidin-1-yl)methyl)piperidine-1-carbonyl)piperidin-4-yl)methyl)piperazin-1-yl)-2-(2,6-dioxopiperidin-3-yl)isoindoline-1,3-dione] | < 1000 | 1000 to 10000 | > 90 | 10 to 50 | degradation | dose-dependent degradation
13 | Nc1ncnc2c1c(-c1ccc(Oc3ccccc3)cc1)nn2[C@@H]1CCCN(CC2CCN(C(=O)N3CCC(CN4CCN(c5ccc6c(c5)C(=O)N(C5CCC(=O)NC5=O)C6=O)CC4)CC3)CC2)C1 (stereo partly drawn) [Compound 31, 5-(4-((1-(4-(((R)-3-(4-amino-3-(4-phenoxyphenyl)-1H-pyrazolo(3,4-d)pyrimidin-1-yl)piperidin-1-yl)methyl)piperidine-1-carbonyl)piperidin-4-yl)methyl)piperazin-1-yl)-2-(2,6-dioxopiperidin-3-yl)isoindoline-1,3-dione] | 1000 to 10000 | 1000 to 10000 | > 90 | 10 to 50 | degradation | dose-dependent degradation
14 | Nc1ncnc2c1c(-c1ccc(Oc3ccccc3)cc1)nn2C1CCN(C(=O)N2CCC(CN3CCN(c4ccc5c(c4)C(=O)N(C4CCC(=O)NC4=O)C5=O)CC3)CC2)CC1 (stereo not shown) [Compound 85, 5-(4-((1-(4-(4-amino-3-(4-phenoxyphenyl)-1H-pyrazolo(3,4-d)pyrimidin-1-yl)piperidine-1-carbonyl)piperidin-4-yl)methyl)piperazin-1-yl)-2-(2,6-dioxopiperidin-3-yl)isoindoline-1,3-dione] | < 1000 | < 1000 | > 90 | < 10 | degradation | dose-dependent degradation

Source: patent US12139492B2 (Endotarget Inc., priority 2021, dated 2024)
